The results in this text go back to patent US20030220521A1, “Renal-selective prodrugs for control of renal sympathetic nerve activity in the treatment of hypertension” (G.D. Searle & Co., priority 1989, published 2003).

The subject of one experiment is conscious SHR. In words: Assay XIII: antihypertensive experiments in conscious SHR (renal denervation, bulbocapnine). The experiment is classed as in vivo, rat. To be noted: bulbocapnine alone. On the procedure: For antihypertensive experiments, male SHR (11-13 weeks of age; Harlan Sprague-Dawley, Inc.; Indianapolis, Ind.) were habituated for 3-4 days in individual experimental cages, which became their home cages for the duration of the study. Five to seven days before experimentation, SHR were anesthetized with chloral hydrate (400 mg/kg; Sigma Chemical Co., St. Louis, Mo.) and catheters were implanted into a femoral artery and vein. The catheters were led to the back of the neck, exteriorized, and channeled through a tether and swivel system (Alice King Chatham, Los Angeles, Calif.). Surgical renal denervation was performed as above. […] In separate groups of conscious SHR, Ex. #859 (5 mg/kg/hr, n=6) was infused alone, Ex. #859 (5 mg/kg/hr, n=6) was coinfused with bulbocapnine (100 μg/kg/min), or Ex. #859 (10 mg/kg/hr, n=6) was infused 5-7 days after surgical renal denervation. Surgical renal denervation was performed as described above. After a one hour control measure of mean arterial pressure, compounds were infused for four hours and mean arterial pressure was measured continuously.

For experiment [1], the system named is spontaneously hypertensive rats. In words: Assay III: chronic i.v. infusion, mean arterial pressure in spontaneously hypertensive rats (Ex. #464). The experiment is classed as in vivo, rat. Particulars: SHR; for MAP: continuous infusion 10 mg/hr. As for the experimental part:
The Ex. #464 conjugate and saline vehicle were infused continuously for four days in spontaneously hypertensive rats. Mean arterial pressure was measured (Gould Chart Recorder, model 3800; Statham P23Db pressure transducer) via an indwelling femoral artery catheter between 10:00 a.m. and 2:00 p.m. each day. The Ex. #464 conjugate was infused at 10 mg/hr and the saline vehicle was infused at 300 μL/hr.

The target in experiment [2] is T1, dopamine beta-hydroxylase (DBH; EC 1.14.17.1) (Bos taurus, UniProt P15101).
T1 construct: DBH, purified from bovine adrenals (Sigma); purchased Sigma; host or cells: bovine adrenals (tissue-purified)
T1 sequence (P15101 1-610): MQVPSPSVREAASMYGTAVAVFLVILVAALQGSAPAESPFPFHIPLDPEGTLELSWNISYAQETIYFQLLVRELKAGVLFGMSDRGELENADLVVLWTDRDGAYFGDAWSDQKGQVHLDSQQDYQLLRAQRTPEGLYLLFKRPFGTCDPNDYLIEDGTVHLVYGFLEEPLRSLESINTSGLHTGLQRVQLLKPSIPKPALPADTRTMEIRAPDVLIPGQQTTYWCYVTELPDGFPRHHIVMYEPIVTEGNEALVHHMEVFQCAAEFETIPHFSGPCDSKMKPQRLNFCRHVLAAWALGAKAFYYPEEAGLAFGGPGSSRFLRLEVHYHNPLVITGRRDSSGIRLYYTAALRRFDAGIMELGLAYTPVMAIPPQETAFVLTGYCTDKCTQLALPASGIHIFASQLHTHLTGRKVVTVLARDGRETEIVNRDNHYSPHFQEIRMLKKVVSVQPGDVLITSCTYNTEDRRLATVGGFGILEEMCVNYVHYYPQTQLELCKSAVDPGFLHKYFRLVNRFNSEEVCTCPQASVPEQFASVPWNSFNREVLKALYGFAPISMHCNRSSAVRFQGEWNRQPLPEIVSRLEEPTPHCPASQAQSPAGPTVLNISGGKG
As to the kind of experiment: Assay V: in vitro DBH inhibition (norepinephrine production, HPLC). The experiment is classed as biochemical, bovine. To be noted: for inhibition at 20 µM: test compound 20 μM, read-out: % Inhibition of DBH. As for the experimental part: In order to characterize the relative potency of the Ex. #859 conjugate and its various potential metabolites as inhibitors of dopamine beta-hydroxylase (DBH; EC 1.14.17.1), the enzyme activity was determined in vitro in the presence of these compounds. DBH, purified from bovine adrenals (Sigma) was incubated at 37° C. in buffer containing 20 mM dopamine as substrate. The reaction was stopped by addition of 0.5 M perchloric acid. The precipitate was removed and the product of the enzyme activity (norepinephrine), contained in the clear supernatant, was analyzed by HPLC. The chromatographic separation used a reversed phase C-18 column run isocratically with 0.2 M ammonium acetate (pH 5.2) as the mobile phase. The amount of norepinephrine produced by the enzyme-substrate mixture was analyzed by measuring the peak intensity (absorbance) at 280 nm for norepinephrine as it was eluted at 4.5 minutes, using a photo-diode array detector. The result of adding either fusaric acid or the Ex. #859 conjugate to the incubate at various concentrations is shown in Table XXIII and FIG. 6. […] Fusaric acid and Ex. #859 and two more possible metabolites (Ex #858 and fusaric acid hydrazide) were tested at 20 uM.

Experiment [3] relates to spontaneously hypertensive rats. As to the kind of experiment: Assay IX: chronic 4 day i.v. infusion of Ex. #861 and #863, mean arterial pressure in SHR. The experiment is classed as in vivo, rat. Particulars: for Blood Pressure (mean arterial pressure): 5 mg/hr i.v. infusion; for chronic effect on mean arterial pressure: SHR, 4 day infusion at 5 mg/hr. As for the experimental part: The conjugates of Ex. #861 and #863 and saline vehicle were infused continuously for 4 days in spontaneously hypertensive rats. Mean arterial pressure was measured (Gould Chart Recorder, model 3800; Statham P23Db pressure transducer) via an indwelling femoral artery catheter between 10:00 a.m. and 2:00 p.m. each day. The Ex. #861 and Ex. #863 conjugates were infused at 5 mg/hr and the saline vehicle was infused at 100 μl/hr via a jugular vein catheter with a Harvard infusion pump. […] It is believed that at a higher dose of the Ex. #861 conjugate, blood pressure lowering effects would be observed.

For experiment [4] the test system is unchanged. In words: Assay VI: acute in vivo effects on mean arterial pressure and renal blood flow in anesthetized SHR (i.v. or i.d.). Also noted: species or system rat. To be noted: for MAP / RBF: 100 mg/kg i.v. On the procedure: Spontaneously hypertensive rats were anesthetized with inactin (100 mg/kg, i.p.) and catheters were implanted into a carotid artery for measurement of mean arterial pressure (Gould model 3800 chart recorder; Statham pressure transducer model no. P23DB) and into a jugular vein for compound administrations (i.v. or i.d.). In addition, a flow probe was implanted around the left renal artery for measurement of renal blood flow using pulsed Doppler flowmetry. Rats were allowed 60 min to stabilize before 10 minutes of control recordings of mean arterial pressure and renal blood flow were obtained. Control measurements were followed by intravenous injection of 50 mg/kg of fusaric acid or the Ex. #859 conjugate. […] The Ex. #859 conjugate had no effect on mean arterial pressure at a dose of 100 mg/kg (n=4) during a 60 minute observation period. Renal blood flow (n=4) was unchanged 15 minutes after injection of the Ex. #859 conjugate but increased from 1.1 KHz (control period) to 3.5 KHz at 30 minutes postinjection.

The test system of experiment [5] is Spontaneously Hypertensive Rats (SHR). As to the kind of experiment: Assay VII: acute effects on arterial pressure in anesthetized SHR. Format: in vivo, rat. To be noted: i.v.: fusaric acid and fusaric acid hydrazide 100 mg/kg, Ex. #859 250 mg/kg. As for the experimental part:
Mean arterial pressure effects of fusaric acid hydrazide (100 mg/kg, i.v.), fusaric acid (100 mg/kg, i.v.) and Ex. #859 conjugate (250 mg/kg, i.v.) are shown in Table XXVII during a vehicle control period and 60 min post-injection of compound in anesthetized SHR. Rats were prepared as described above, minus the renal artery flow probe.

The mark [6] stands for this setting: anesthetized SHR, Ex. #863 (Table XXVI).

Molecules are shown by their SMILES.

Turning to `COc1ccc2c(c1O)-c1c3c(cc4c1[C@H](C2)N(C)CC4)OCO3` [Bulbocapnine, bulbocapnine, reference compound], the Mean arterial pressure came to 160 ± 6 with conscious SHR (0 hours); 156 ± 7 in the experiment with conscious SHR (1 hour); 161 ± 11 in the experiment on conscious SHR (2 hours); 159 ± 6 in the experiment on conscious SHR (3 hours); 157 ± 7 in the experiment with conscious SHR (4 hours). The “effect on mean arterial pressure over the four hour period” value with conscious SHR (conscious SHR) is recorded as “no effect”.
For `CC(=O)NC(CCC(=O)N[C@@](C)(Cc1ccc(O)c(O)c1)C(=O)O)C(=O)O` (stereo partly drawn) [Ex. #464, N-[4-(acetylamino)-4-carboxy-1-oxobutyl]-3-hydroxy-α-methyl-L-tyrosine], the MAP in experiment [1] (day 1) is recorded as 169 ± 5 mm Hg; in experiment [1] (day 2) it was 161 ± 4 mm Hg; in experiment [1] (day 3), 163 ± 5 mm Hg; in experiment [1] (day 4), 159 ± 8 mm Hg; in experiment [1] (day Zero) it was 179 ± 6 mm Hg. The “effect on mean arterial pressure over the four-day period” value in experiment [1] (infusion 10 mg/hr) is listed as “lowered significantly”.
Turning to `CCCCc1ccc(C(=O)NNC(=O)CCC(N)C(=O)O)nc1` [Ex. #858, L-glutamic acid, 5-{[(5-butyl-2-pyridinyl)carbonyl]hydrazide}], the inhibition at 20 µM in experiment [2] was 0%.
For `CCCCc1ccc(C(=O)NCCNC(=O)CCC(NC(C)=O)C(=O)O)nc1` [Ex. #861, N^2-acetyl-N-[2-[[(5-butyl-2-pyridinyl)carbonyl]amino]ethyl]-L-glutamine], the “Blood Pressure (mean arterial pressure)” value in experiment [3] (day 1) was found to be 173 ± 3; in experiment [3] (day 2), 172 ± 4; in experiment [3] (day 3) it was 172 ± 3; in experiment [3] (day 4), 163 ± 9; in experiment [3] (day zero) it was 177 ± 3. The “chronic effect on mean arterial pressure” value in experiment [3] is “did not change”.
On to `CCCCc1ccc(C(=O)N2CCN(C(=O)CCC(NC(C)=O)C(=O)O)CC2)nc1` (centres unmarked) [Ex. #863, 2-(acetylamino)-5-(4-[(5-butyl-2-pyridinyl)carbonyl]-1-piperazinyl]-5-oxopentanoic acid], for which the “Blood Pressure (mean arterial pressure)” value in experiment [3] (day 1) is 152 ± 6; in experiment [3] (day 2) it was 146 ± 7; in experiment [3] (day 3), 142 ± 7; in experiment [3] (day 4), 154 ± 7; in experiment [3] (day zero), 177 ± 5. In experiment [3], the “chronic effect on mean arterial pressure” value is “lowered mean arterial pressure”. In addition, the MAP in experiment [4] (60 min) came to 147 ± 14 mm Hg; in experiment [4] (time zero) it was 149 ± 14 mm Hg. The results for the RBF in experiment [4] (60 min) and in experiment [4] (time zero) were 4.3 ± 0.3 KHz and 1.6 ± 0.2 KHz, respectively. Besides, the “effect on mean arterial pressure” value in experiment [4] (setting [6]) is “no effect”. The “effect on renal blood flow” value in experiment [4] (setting [6]) is recorded as “increased renal blood flow”.
As to `CCCCc1ccc(C(=O)NN)nc1` [Fusaric Acid Hydrazide, 5-n-butylpicolinic acid hydrazide], in experiment [2], the inhibition at 20 µM was 13.8%. In addition, in experiment [2] (tested at 20 uM), the “inhibitory effect on dopamine-β-hydroxylase activity” value is reported as “Only fusaric acid had significant inhibitory effects”. Besides, the figures for the Mean arterial pressure in experiment [5] (60 MIN post-injection) and in experiment [5] (ZERO (vehicle control period)) were 104 ± 13 mmHg and 159 ± 8 mmHg, respectively.
